Source: patent publication US20250034135A1, “ANTI-APOPTOTIC PROTEIN BCL-2 INHIBITOR, PHARMACEUTICAL COMPOSITION AND USES THEREOF” (HANGZHOU HEALZEN THERAPEUTICS CO., LTD., priority 2021, published 2025)

These compounds were tested against BCL2 (Homo sapiens (Human), UniProt P10415) (assay: Molecular level activity test of anti-apoptotic protein BCL2 (HTRF, binding to Bim peptide)). Settings: HTRF, binding of BCL2 to Bim peptide; read-out: BCL2 nM (inhibitory activity, IC50).
Experimental: The detection of the binding ability between anti-apoptotic protein BCL2 and pro-apoptotic protein Bim was performed using Homogeneous Time-Resolved Fluorescence technology. The reaction of this method occurred in a white shallow 384-well plate, with a total reaction volume of 10 μL. Specifically, it included 2 μL of the compound to be tested (2% DMSO), 4 μL His-tagged recombinant protein, and 4 μL Biotin-tagged BIM protein peptide. After 1 hour of reaction, 5 μL of each Anti-His and streptavidin-tagged XL665 antibody diluents diluted with a detection buffer were added. After incubating at room temperature for 4 hours, the values were read using the Envision multifunctional microplate reader to detect the effect of the compound to be tested on the binding ability of BCL2 to Bim protein peptides.

BCL2, sequence (P10415 whole entry): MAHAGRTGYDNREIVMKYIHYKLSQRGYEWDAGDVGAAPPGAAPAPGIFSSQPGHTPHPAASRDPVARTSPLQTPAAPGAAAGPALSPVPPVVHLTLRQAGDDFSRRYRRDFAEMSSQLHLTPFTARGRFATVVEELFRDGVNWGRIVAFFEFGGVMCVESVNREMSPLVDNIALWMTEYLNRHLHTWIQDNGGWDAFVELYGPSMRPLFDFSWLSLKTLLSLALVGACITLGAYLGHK

IC50, < 10 nM:
CC(C)c1ccccc1[C@@H]1CCCN1C1CC2(CCN(c3ccc(C(=O)NS(=O)(=O)c4cc([N+](=O)[O-])c(NC[C@H]5CC[C@](C)(O)CC5)c5[nH]cnc45)c(N4CCOc5nc6[nH]ccc6cc54)c3)CC2)C1 [compound 079, 2-(2,3-dihydropyrrolo[3′,2′:5,6]pyridino[2,3-b][1,4]oxazin-1 (6H)-yl)-N-((7-((((1r,4r)-4-hydroxy-4-methylcyclohexyl)methyl)amino)-6-nitro-1H-benzo[d]imidazol-4-yl)sulfonyl)-4-(2-((S)-2-(2-isopropylphenyl)pyrrolidin-1-yl)-7-azaspiro[3.5]non-7-yl)benzamide]
CC(C)c1ccccc1[C@@H]1CCCN1C1CC2(CCN(c3cc(Oc4cnc5[nH]ccc5c4)c(C(=O)NS(=O)(=O)c4cc([N+](=O)[O-])c(NCC5(F)CCN(CC(C)(C)C)CC5)c5[nH]cnc45)cc3F)CC2)C1 [compound 026]
CC(C)c1ccccc1[C@@H]1CN(Cc2cccc3c2OCCO3)CCN1C1CC2(CCN(c3cc(Oc4cnc5[nH]ccc5c4)c(C(=O)NS(=O)(=O)c4ccc(NCC5(F)CCOCC5)c([N+](=O)[O-])c4)cc3F)CC2)C1 [compound 208, (R)-2-((1H-pyrrolo[2,3-b]pyrid-5-yl)oxy)-4-(2-(4-((2,3-dihydrobenzo[b][1,4]dioxan-5-yl)methyl)-2-(2-isopropylphenyl)piperazin-1-yl)-7-azaspiro[3.5]non-7-yl)-5-fluoro-N-((4-(((4-fluorotetrahydro-2H-pyran-4-yl)methyl)amino)-3-nitrophenyl)sulfonyl)benzamide]
COc1ccc(CN2CCN(C3CC4(CCN(c5cc(Oc6cnc7[nH]ccc7c6)c(C(=O)NS(=O)(=O)c6ccc(NCC7(F)CCOCC7)c([N+](=O)[O-])c6)cc5F)CC4)C3)[C@H](c3ccccc3C(C)C)C2)c2c1OCCO2 [compound 206, (R)-2-((1H-pyrrolo[2,3-b]pyrid-5-yl)oxy)-5-fluoro-N-((4-(((4-fluorotetrahydro-2H-pyran-4-yl)methyl)amino)-3-nitrophenyl)sulfonyl)-4-(2-(2-(2-isopropylphenyl)-4-(8-methoxy-2,3-dihydrobenzo[b][1,4-dioxan-5-yl)methyl)piperazin-1-yl)-7-azaspiro[3.5]non-7-yl)benzamide]
COc1ccc(CN2CCN(C3CC4(CCN(c5ccc(C(=O)NS(=O)(=O)c6cc([N+](=O)[O-])c(NCC7(F)CCOCC7)c7c6OC(C)(C)O7)c(Oc6cnc7[nH]ccc7c6)c5)CC4)C3)[C@H](c3ccccc3C(C)C)C2)cc1 [compound 162, (R)-2-((1H-pyrrolo[2,3-b]pyrid-5-yl)oxy)-N-((7-(((4-fluorotetrahydro-2H-pyran-4-yl)methyl)amino)-2,2-dimethyl-6-nitrobenzo[d][1,3]dioxocyclopent-4-yl)sulfonyl)-4-(2-(2-(2-isopropylphenyl)-4-(4-methoxybenzyl)piperazin-1-yl)-7-azaspiro[3.5]non-7-yl)benzamide]
CC(C)c1ccccc1[C@@H]1CCCN1C1CC2(CCN(c3cc(Oc4cnc5[nH]ccc5c4)c(C(=O)NS(=O)(=O)c4cc([N+](=O)[O-])c(NCC5(F)CCOCC5)c5c4OCO5)cc3F)CC2)C1 [compound 101, (S)-2-((1H-pyrrolo[2,3-b]pyrid-5-yl)oxy)-5-fluoro-N-((7-(((4-fluorotetrahydro-2H-pyran-4-yl)methyl)amino)-6-nitrobenzo[d][1,3]dioxocyclopent-4-yl)sulfonyl)-4-(2-(2-(2-isopropylphenyl)pyrrolidin-1-yl)-7-azaspiro[3.5]non-7-yl)benzamide]
CC(C)c1ccccc1[C@@H]1CN(Cc2ccc(F)cc2F)CCN1C1CC2(CCN(c3ccc(C(=O)NS(=O)(=O)c4cc([N+](=O)[O-])c(NCC5(F)CCOCC5)c5c4OCO5)c(Oc4cnc5[nH]ccc5c4)c3)CC2)C1 [compound 169, (R)-2-((1H-pyrrolo[2,3-b]pyrid-5-yl)oxy)-4-(2-(4-(2,4-difluorobenzyl)-2-(2-isopropylphenyl)piperazin-1-yl)-7-azaspiro[3.5]non-7-yl)-N-((7-(((4-fluorotetrahydro-2H-pyran-4-yl)methyl)amino)-6-nitrobenzo[d][1,3]dioxocyclopent-4-yl)sulfonyl)benzamide]
COc1ccc(CN2C[C@@H](c3ccccc3C(C)C)N(C3CC4(CCN(c5cc(Oc6cnc7[nH]ccc7c6)c(C(=O)NS(=O)(=O)c6ccc(NCC7(F)CCOCC7)c([N+](=O)[O-])c6)cc5F)CC4)C3)C[C@@H]2C)cc1 [compound 154, 2-((1H-pyrrolo[2,3-b]pyrid-5-yl)oxy)-5-fluoro-N-((4-(((4-fluorotetrahydro-2H-pyran-4-yl)methyl)amino)-3-nitrophenyl)sulfonyl)-4-(2-((2R,5S)-2-(2-isopropylphenyl)-4-(4-methoxybenzyl)-5-methylpiperazin-1-yl)-7-azaspiro[3.5]non-7-yl)benzamide]
COc1ccc(CN2CCN(C3CC4(CCN(c5cc(Oc6cnc7[nH]ccc7c6)c(C(=O)NS(=O)(=O)c6ccc(NC[C@H]7CC[C@](C)(O)CC7)c([N+](=O)[O-])c6)cc5F)CC4)C3)[C@H](c3ccccc3C(C)C)C2)cc1OC [compound 221, 2-((1H-pyrrolo[2,3-b]pyrid-5-yl)oxy)-4-(2-((R)-4-(3,4-dimethoxybenzyl)-2-(2-isopropylphenyl)piperazin-1-yl)-7-azaspiro[3.5]non-7-yl)-5-fluoro-N-((4-((((1r, 4r)-4-hydroxy-4-methylcyclohexyl)methyl)amino)-3-nitrophenyl)sulfonyl)benzamide]
CC(C)c1ccccc1[C@@H]1CCCN1C1CC2(CCN(c3cc(Oc4cnc5[nH]ccc5c4)c(C(=O)NS(=O)(=O)c4cc([N+](=O)[O-])c(NCC5(F)CCN(C6CCOCC6)CC5)c5[nH]cnc45)cn3)CC2)C1 [compound 023]
COc1ccc(CN2CCN(C3CC4(CCN(c5cc(Oc6cnc7[nH]ccc7c6)c(C(=O)NS(=O)(=O)c6cc([N+](=O)[O-])c(NCC7(F)CCOCC7)c7scnc67)cc5F)CC4)C3)[C@H](c3ccccc3C(C)C)C2)cc1 [compound 108]
CC(C)c1ccccc1[C@@H]1CCCN1C1CC2(CCN(c3cc(N4CCOc5nc6[nH]ccc6cc54)c(C(=O)NS(=O)(=O)c4cc([N+](=O)[O-])c(NCC5(F)CCN(C(C)C)CC5)c5[nH]cnc45)cn3)CC2)C1 [compound 083, (S)-4-(2,3-dihydropyrrolo[3′,2′:5,6]pyridino[2,3-b][1,4]oxazin-1 (6H)-yl)-N-((7-(((4-fluoro-1-isopropylpiperid-4-yl)methyl)amino)-6-nitro-1H-benzo[d]imidazol-4-yl)sulfonyl)-6-(2-(2-(2-isopropylphenyl)pyrrolidin-1-yl)-7-azaspiro[3.5]non-7-yl) nicotinamide]
COc1cc(CN2CCN(C3CC4(CCN(c5ccc(C(=O)NS(=O)(=O)c6cc([N+](=O)[O-])c(NC[C@H]7CC[C@](C)(O)CC7)c7c6OCO7)c(Oc6cnc7[nH]ccc7c6)c5)CC4)C3)[C@H](c3ccccc3C(C)C)C2)ccc1C1CC1 [compound 179, 2-((1H-pyrrolo[2,3-b]pyrid-5-yl)oxy)-4-(2-((R)-4-(4-cyclopropyl-3-methoxybenzyl)-2-(2-isopropylphenyl)piperazin-1-yl)-7-azaspiro[3.5]non-7-yl)-N-((7-((((1r, 4r)-4-hydroxy-4-methylcyclohexyl)methyl)amino)-6-nitrobenzo[d][1,3]dioxocyclopent-4-yl)sulfonyl)benzamide]
CC(C)c1ccccc1[C@@H]1CCCN1C1CC2(CCN(c3ccc(C(=O)NS(=O)(=O)c4cc([N+](=O)[O-])c(NCC5CCOCC5)c5c4OCO5)c(Oc4cnc5[nH]ccc5c4)c3)CC2)C1 [compound 160, (S)-2-((1H-pyrrolo[2,3-b]pyrid-5-yl)oxy)-4-(2-(2-(2-isopropylphenyl)pyrrolidin-1-yl)-7-azaspiro[3.5]non-7-yl)-N-((6-nitro-7-(((tetrahydro-2H-pyran-4-yl)methyl)amino)benzo[d][1,3]dioxocyclopent-4-yl)sulfonyl)benzamide]
CC(C)c1ccccc1[C@@H]1CCCN1C1CC2(CCN(c3cc(Oc4cnc5[nH]ccc5c4)c(C(=O)NS(=O)(=O)c4cc([N+](=O)[O-])c(NC[C@H]5CC[C@](C)(O)CC5)c5c4OCO5)cc3F)CC2)C1 [compound 096, 2-((1H-pyrrolo[2,3-b]pyrid-5-yl)oxy)-5-fluoro-N-((7-((((1r, 4r)-4-hydroxy-4-methylcyclohexyl)methyl)amino)-6-nitrobenzo[d][1,3]dioxocyclopent-4-yl)sulfonyl)-4-(2-((S)-2-(2-isopropylphenyl)pyrrolidin-1-yl)-7-azaspiro[3.5]non-7-yl)benzamide]
CC(C)c1ccccc1C1CN(C2CCOCC2)CCN1C1CC2(CCN(c3ccc(C(=O)NS(=O)(=O)c4cc([N+](=O)[O-])c(NC[C@H]5CC[C@](C)(O)CC5)c5[nH]cnc45)c(Oc4cnc5[nH]ccc5c4)c3)CC2)C1 (some centres unmarked) [compound 043, 2-((1H-pyrrolo[2,3-b]pyrid-5-yl)oxy)-N-((7-((((1r,4r)-4-hydroxy-4-methylcyclohexyl)methyl)amino)-6-nitro-1H-benzo[d]imidazol-4-yl)sulfonyl)-4-(2-(2-(2-isopropylphenyl)-4-(tetrahydro-2H-pyran-4-yl)piperazin-1-yl)-7-azaspiro[3.5]non-7-yl)benzamide]
COc1ccc(CN2CCN(C3CC4(CCN(c5cc(Oc6cnc7[nH]ccc7c6)c(C(=O)NS(=O)(=O)c6cc([N+](=O)[O-])c(NC[C@H]7CC[C@](C)(O)CC7)c7oc(C)cc67)cc5F)CC4)C3)[C@H](c3ccccc3C(C)C)C2)cc1 [compound 117, 2-((1H-pyrrolo[2,3-b]pyrid-5-yl)oxy)-5-fluoro-N-((7-((((1r, 4r)-4-hydroxy-4-methylcyclohexyl)methyl)amino)-2-methyl-6-nitrobenzofuran-4-yl)sulfonyl)-4-(2-((R)-2-(2-isopropylphenyl)-4-(4-methoxybenzyl)piperazin-1-yl)-7-azaspiro[3.5]non-7-yl)benzamide]
